pIC50: −log10 of the molar value.
target: Autotaxin (Homo sapiens, UniProt Q13822); experiment: Human Autotaxin Assay: ATX activity is assayed in concentrated conditioned media from Hep3B human hepatocellular carcinoma cells by measuring the amount of choline released from the substrate, lysophosphatidylcholine (LPC) as it is cleaved to LPA. Conditioned media is collected from confluent Hep3B cells and concentrated 20-fold using Centriprep-30 filter devices (Millipore).

Structure (SMILES) | pIC50
CCCn1cc(-n2c(Br)c(Sc3cccc(C(=O)O)c3)c3ccc(Cl)cc32)cn1 | > 6.30
C#CCCCCn1cc(-n2c(C3CC3)c(Sc3cccc(C(=O)O)c3F)c3ccc(Cl)c(F)c32)cn1 | > 6.30
CC(C)(CO)Cn1cc(-n2c(C3CC3)c(Sc3cccc(C(=O)O)c3F)c3ccc(Cl)c(F)c32)cn1 | > 6.30

Reference: ChEMBL document CHEMBL5729124, “Autotaxin inhibitor compounds” (2022)
